Laboratory results from patent US5830433A, “Radiolabeled growth hormone secretagogue” (Merck & Co., Inc., priority 1996, dated 1998).

Test: storage stability of the radioligand in solution
Assay type: physicochemical
Settings: trace hcl; stored at -20° C. as a solution in 15% methanol/water containing a trace of hydrochloric acid; read-out: stability, loss of radiochemical purity

For `CC(C)(N)C(=O)N[C@H](COCc1ccccc1)C(=O)N1CCC2(CC1)CN([35S](C)(=O)=O)c1ccccc12` [[^35 S]-radioligand, [^35 S]N-[1(R)-[(1,2-Dihydro-1-methanesulfonylspiro[3H-indole-3,4'-piperdin]-1'-yl)carbonyl]-2-(phenylmethyloxy)ethyl]-2-amino-2-methylpropanamide], the degraded at 730 h was < 0.5%.
